Source: PMC4187030, “Effect of cyclodextrin complexation on phenylpropanoids’ solubility and antioxidant activity” (Beilstein Journal of Organic Chemistry, 2014)
Like-named read-outs stand apart in the source and are kept apart here.

Key:
[1] = Formation constants (Kf) by UV–visible spectral displacement method, α-CD; type: physicochemical; settings: UV–visible spectral displacement with MO (MO itself by direct titration), SD <10%
Experimental: (§1) Formation constant (Kf) values were calculated using a UV–visible spectral displacement method. This method implies first the characterization of the inclusion complexes between CDs and the competitor (methyl orange, MO). The results are summarized in Table 1 in comparison with values from the literature.
(§2) The UV–visible competition method with methyl orange (MO) as competitor was carried out according to the method described by Landy et al.. In order to calculate CD/PP Kf values, CD/MO inclusion complexes were firstly characterized by a direct titration method. Then, a spectral displacement method was applied by adding PP to a solution containing constant concentration of MO and CD. The addition of PP implied an absorbance increment leading to the calculation of CD/PP Kf values. Spectra were recorded between 520–530 nm for a MO concentration fixed at 0.1 mM. This wavelength range corresponds to the optimal spectral variation between the absorbance of free and complexed forms of MO. All Kf values were calculated by an algorithmic treatment applied to the first derivatives of UV spectra in order to avoid any spectral influence of diffraction phenomena. Absorption studies were performed using a UV–visible dual-beam spectrophotometer (Perkin Elmer Lambda 2S) with a 1 cm thick quartz cuvette.

[2] = Formation constants (Kf) by UV–visible spectral displacement method, β-CD; type: physicochemical; settings: UV–visible spectral displacement with MO (MO itself by direct titration), SD <10%
Experimental: as §1, §2

[3] = Formation constants (Kf) by UV–visible spectral displacement method, HP-β-CD; type: physicochemical; settings: UV–visible spectral displacement with MO (MO itself by direct titration), SD <10%
Experimental: as §1, §2

[4] = Formation constants (Kf) by UV–visible spectral displacement method, RAMEB; type: physicochemical; settings: UV–visible spectral displacement with MO (MO itself by direct titration), SD <10%
Experimental: as §1, §2

[5] = Formation constants (Kf) by UV–visible spectral displacement method, CRYSMEB; type: physicochemical; settings: UV–visible spectral displacement with MO (MO itself by direct titration), SD <10%
Experimental: as §1, §2

[6] = Experimental: (§3) Phase solubility studies were carried out according to the method described by Higuchi and Connors. Excess amount of PP was added to 1 mL of CD solution at different concentrations ranging from 0 to 10 mM. The mixtures were shaken at 25 °C for 24 h then filtered through a 0.45 μm membrane filter. The concentration of PP in the filtrate was determined spectrophotometrically at the maximum wavelength corresponding to each PP. Phase solubility diagrams were obtained by plotting the solubility of PP as a function of CD concentration. Kf value of CD/PP inclusion complex was calculated from the linear segment of the phase–solubility diagrams using the following equation: […]
(§4) where S0 is the intrinsic solubility of PP in the absence of CD and the Slope is the slope of the phase–solubility profile. The solubilizing potential of CD was evaluated by the complexation efficiency (CE) parameter. CE equal the complex to free CD concentration ratio and was calculated from the slope of the phase solubility diagram: […]
(§5) where [CD/PP] is the concentration of dissolved inclusion complex and [CD] is the concentration of dissolved free CD. The CE can be used to calculate the PP:CD ratio as follows:
(§6) The correlation between the CE and the molecular weight of CD or guest allowed the determination of the increase in formulation bulk which can be calculated using the following equation: […]
(§7) where MWCD and MWPP are the molecular weight values of CD and PP, respectively.

[7] = Phase solubility studies, β-CD
Experimental: as §3, §4, §5, §6, §7

[8] = Phase solubility studies, HP-β-CD
Experimental: as §3, §4, §5, §6, §7

[9] = Phase solubility studies, RAMEB
Experimental: as §3, §4, §5, §6, §7

[10] = Phase solubility studies, CRYSMEB
Experimental: as §3, §4, §5, §6, §7

[11] = DPPH radical scavenging activity; settings: for Change of DPPH radical scavenging activity upon complexation with CDs: PP in 10 mM CD solution vs water; for Kinetic behavior of reaction with DPPH•: PP with ethanolic DPPH• solution; for DPPH radical scavenging (antioxidant) activity of PP alone: absence of CD, 1 h (3, 4, 6, 7) or 15 h (1, 2, 5), 25 °C
Experimental: The 2,2-diphenyl-1-picrylhydrazyl (DPPH) radical scavenging activity of PP and their inclusion complexes was measured using the method described by Brand-Williams, Cuvelier, and Berset (1995) with some modifications. 1 mg of PP was dissolved in 50 mL of water, or 10 mM CD solution. 2 mL aliquot of the solution was vigorously mixed with 2 mL of ethanolic DPPH^• solution (0.1 mM). […]. Blank sample was prepared by mixing 2 mL of distilled water with 2 mL of DPPH^• solution. The scavenging activity was calculated using the following equation: […]
where As and A0 are the absorbance of sample and blank sample, respectively.

[12] = design: method as in earlier work; settings: cited from earlier work
[13] = α-CD; ref 29; cited from earlier work
[14] = β-CD; ref 30; cited from earlier work
[15] = HP-β-CD; ref 30; cited from earlier work

| Compound | Formation constant (Kf) [1] [M⁻¹] | Formation constant (Kf) [2] [M⁻¹] | Formation constant (Kf) [3] [M⁻¹] | Formation constant (Kf) [4] [M⁻¹] | Formation constant (Kf) [5] [M⁻¹] | Change of DPPH radical scavenging activity upon complexation with CDs [11] | Kinetic behavior of reaction with DPPH• [11] | DPPH radical scavenging (antioxidant) activity of PP alone [11] | also measured |
| --- | --- | --- | --- | --- | --- | --- | --- | --- | --- |
| C=CCc1ccc(OC)cc1 [Estragole (2), estragole] | 335 | 987 | 1508 | 1916 | 1584 | increase in activity | slow kinetic behavior | reacted little | Increase in formulation bulk [6]: 36; Kf [6]: 682 M⁻¹; Increase in formulation bulk [7]: 35; Kf [7]: 882 M⁻¹; Increase in formulation bulk [8]: 32; Kf [8]: 1412 M⁻¹; Increase in formulation bulk [9]: 26; Kf [9]: 1694 M⁻¹; Increase in formulation bulk [10]: 25; Kf [10]: 1512 M⁻¹; log P [12]: 2.818 |
| COc1cc(/C=C/C(=O)O)ccc1O [Ferulic acid (7), ferulic acid] | 1769 | 246 | 451 | 908 | 474 | kept unchanged | reacted rapidly | higher antioxidant activity | Formation constant (Kf) [13]: 1162 M⁻¹; Formation constant (Kf) [14]: 205 M⁻¹; Formation constant (Kf) [15]: 590 M⁻¹; log P [12]: 1.249 |
| CC(O)COC[C@H]1O[C@@H]2O[C@H]3[C@H](O)[C@@H](O)[C@@H](O[C@H]4[C@H](O)[C@@H](O)[C@@H](O[C@H]5[C@H](O)[C@@H](O)[C@@H](O[C@H]6[C@H](O)[C@@H](O)[C@@H](O[C@H]7[C@H](O)[C@@H](O)[C@@H](O[C@H]8[C@H](O)[C@@H](O)[C@@H](O[C@H]1[C@H](O)[C@H]2O)O[C@@H]8COCC(C)O)O[C@@H]7COCC(C)O)O[C@@H]6COCC(C)O)O[C@@H]5COCC(C)O)O[C@@H]4COCC(C)O)O[C@@H]3COCC(C)O (stereo partly drawn) [HP-β-CD, hydroxypropyl-β-cyclodextrin] | – | – | – | – | – | – | – | – | CE mean value ([8]; HP-β-CD, mean over the studied PPs): 1.42 |
| CN(C)c1ccc(N=Nc2ccc(S(=O)(=O)[O-])cc2)cc1.[Na+] [MO, methyl orange, reference compound] | 7810 | 2386 | 5597 | 15400 | 3594 | – | – | – | – |
| OC[C@H]1O[C@@H]2O[C@H]3[C@H](O)[C@@H](O)[C@@H](O[C@H]4[C@H](O)[C@@H](O)[C@@H](O[C@H]5[C@H](O)[C@@H](O)[C@@H](O[C@H]6[C@H](O)[C@@H](O)[C@@H](O[C@H]7[C@H](O)[C@@H](O)[C@@H](O[C@H]8[C@H](O)[C@@H](O)[C@@H](O[C@H]1[C@H](O)[C@H]2O)O[C@@H]8CO)O[C@@H]7CO)O[C@@H]6CO)O[C@@H]5CO)O[C@@H]4CO)O[C@@H]3CO [β-CD, β-cyclodextrin] | – | – | – | – | – | – | – | – | CE mean value [7]: 0.91 |
| isoeugenol [Isoeugenol (3)] | – | – | – | – | – | kept unchanged | reacted rapidly | higher antioxidant activity | – |
| low methylated β-cyclodextrin [CRYSMEB] | – | – | – | – | – | – | – | – | CE mean value [10]: 1.21 |
| randomly methylated β-cyclodextrin [RAMEB] | – | – | – | – | – | – | – | – | CE mean value [9]: 1.70 |
